{
  "source": "patent US20260242391A1",
  "about": "(priority 2023, published 2026)",
  "key": {"MDS-L cells [1]": {"tested_on": "MDS-L cells", "details": "human"}, "MDS-L cells [2]": {"tested_on": "MDS-L cells", "test": "cells", "details": "read-out: MDS-L GlyA induction EC50"}, "MDS-L cells [3]": {"tested_on": "MDS-L cells", "test": "Loss of CD71 in MDS-L cells", "type": "cell-based"}, "MDS-L cells [4]": {"tested_on": "MDS-L cells", "test": "CFU assays with MDS-L cells", "type": "cell-based"}, "MDS-L cells [5]": {"tested_on": "MDS-L cells"}, "HL-60 [6]": {"tested_on": "HL-60", "test": "HL-60 differentiation potency", "type": "cell-based", "details": "Homo sapiens"}, "HL-60 [7]": {"tested_on": "HL-60"}, "MDS-L cells [8]": {"tested_on": "MDS-L cells", "test": "Labile heme levels of MDS-L cells", "type": "cell-based", "details": "over relevant time periods (FIG. 4B)"}, "HL-60 [9]": {"tested_on": "HL-60", "test": "HL-60 differentiation potency", "type": "cell-based", "details": "Homo sapiens", "remark": "listed apart in the source"}, "HL-60 [10]": {"tested_on": "HL-60", "remark": "listed apart in the source"}},
  "note": "Like-named read-outs stand apart in the source and are kept apart here.",
  "data": [
    {"smiles": "C[C@H]1[C@@H](O)O[C@@H]2O[C@@]3(C)CC[C@H]4[C@H](C)CC[C@@H]1[C@@]24OO3", "note": "[Dihydroartemisin, dihydro- artemisinin]", "values": [
      {"measurement": "Maximal MDS-L GlyA fold induction", "setting": "MDS-L cells [1]", "result": 7.09, "unit": "fold"},
      {"measurement": "EC50", "setting": "MDS-L cells [2]", "result": 610, "unit": "nM"}
    ]},
    {"smiles": "CCO[C@H]1O[C@@H]2O[C@@]3(C)CC[C@H]4[C@H](C)CC[C@@H]([C@H]1C)[C@@]24OO3", "note": "[Arteether, arteether]", "values": [
      {"measurement": "Loss of CD71", "setting": "MDS-L cells [3]", "result": "efficaciously promoted the loss of CD71"},
      {"measurement": "Terminal differentiation of MDS-L cells to CFU-Es while decreasing BFU-E, CFU-GM and CFU-GEMM type colonies", "setting": "MDS-L cells [4]", "result": "efficaciously induced terminal differentiation"},
      {"measurement": "Induction in apoptosis", "setting": "MDS-L cells [5]", "result": "no significant induction"},
      {"measurement": "Maximal MDS-L GlyA fold induction", "setting": "MDS-L cells [1]", "result": 3.82, "unit": "fold"},
      {"measurement": "EC50", "setting": "MDS-L cells [2]", "result": 580, "unit": "nM"}
    ]},
    {"smiles": "C[C@H]1[C@@H](Oc2cc(F)c(CC(=O)O)c(F)c2)O[C@@H]2O[C@@]3(C)CC[C@H]4[C@H](C)CC[C@@H]1[C@@]24OO3", "note": "[Compound 22, 2-(2,6-difluoro-4-(((3R,5aS,6R, 8aS,9R,10S,12R, 12aR)-3,6,9-trimethyldeca-hydro-12H-3,12-epoxy[1,2]dioxepino[4,3-i]isochromen-10-yl)oxy)phenyl) acetic acid]", "values": [
      {"measurement": "EC50", "setting": "HL-60 [6]", "result": 131, "unit": "nM"},
      {"measurement": "IC50", "setting": "HL-60 [7]", "result": 20000, "unit": "nM"}
    ]},
    {"smiles": "C[C@H]1[C@H](N2CCS(=O)(=O)CC2)O[C@@H]2O[C@@]3(C)CC[C@H]4[C@H](C)CC[C@@H]1[C@@]24OO3", "note": "[artemisone]", "values": [
      {"measurement": "Loss of CD71", "setting": "MDS-L cells [3]", "result": "efficaciously promoted the loss of CD71"},
      {"measurement": "Terminal differentiation of MDS-L cells to CFU-Es while decreasing BFU-E, CFU-GM and CFU-GEMM type colonies", "setting": "MDS-L cells [4]", "result": "efficaciously induced terminal differentiation"},
      {"measurement": "Induction in apoptosis", "setting": "MDS-L cells [5]", "result": "no significant induction"},
      {"measurement": "Maximal MDS-L GlyA fold induction", "setting": "MDS-L cells [1]", "result": 6.84, "unit": "fold"},
      {"measurement": "EC50", "setting": "MDS-L cells [2]", "result": 150, "unit": "nM"},
      {"measurement": "Levels of labile heme in MDS-L cells", "setting": "MDS-L cells [8]", "result": "efficiently reduced"}
    ]},
    {"smiles": "C[C@H]1[C@@H](OC[C@H]2CC[C@@H](C(=O)N[C@H]3CC[C@@H](C(=O)O)C3)CC2)O[C@@H]2O[C@@]3(C)CC[C@H]4[C@H](C)CC[C@@H]1[C@@]24OO3", "note": "[Compound 267, (1R,3S)-3-((1R,4R)-4-((((3R,5aS,6R,8aS, 9R,10S,12R, 12aR)-3,6,9-trimethyldeca-hydro-12H-3,12-epoxy[1,2]dioxepino[4,3-i]isochromen-10-yl)oxy)methyl)cyclohexane-1-carboxamido) cyclopentane-1-carboxylic acid]", "values": [
      {"measurement": "EC50", "setting": "HL-60 [9]", "result": 156, "unit": "nM"},
      {"measurement": "IC50", "setting": "HL-60 [10]", "result": 20000, "unit": "nM"}
    ]},
    {"smiles": "CC(C)[C@H](NC(=O)Cc1ccc(O[C@H]2O[C@@H]3O[C@@]4(C)CC[C@H]5[C@H](C)CC[C@@H]([C@H]2C)[C@@]35OO4)cc1)C(=O)O", "note": "[Compound 302, (2-(4-(((3R,5aS,6R,8aS, 9R,10S,12R, 12aR)-3,6,9-trimethyldeca-hydro-12H-3,12-epoxy[1,2]dioxepino[4,3-i]isochromen-10-yl)oxy)phenyl)acetyl)-L-valine]", "values": [
      {"measurement": "EC50", "setting": "HL-60 [9]", "result": 16.2, "unit": "nM"},
      {"measurement": "IC50", "setting": "HL-60 [10]", "result": 20000, "unit": "nM"}
    ]},
    {"smiles": "C[C@H]1[C@H](OC2CCc3cc(C(=O)O)ccc32)O[C@@H]2O[C@@]3(C)CC[C@H]4[C@H](C)CC[C@@H]1[C@@]24OO3", "note": "(stereo partly drawn) [Compound 225, 1-(((3R,5aS,6R,8aS, 9R,10R,12R, 12aR)-3,6,9-trimethyldeca-hydro-12H-3,12-epoxy[1,2]dioxepino[4,3-i]isochromen-10-yl)oxy)-2,3-dihydro-1H-indene-5-carboxylic acid]", "values": [
      {"measurement": "EC50", "setting": "HL-60 [9]", "result": 203, "unit": "nM"},
      {"measurement": "IC50", "setting": "HL-60 [10]", "result": 20000, "unit": "nM"}
    ]},
    {"smiles": "C[C@H]1[C@H](Oc2cc(F)c(CC(=O)O)c(F)c2)O[C@@H]2O[C@@]3(C)CC[C@H]4[C@H](C)CC[C@@H]1[C@@]24OO3", "note": "[Compound 14, 2-(2,6-difluoro-4-(((3R,5aS,6R, 8aS,9R,10R,12R, 12aR)-3,6,9-trimethyldeca-hydro-12H-3,12-epoxy[1,2]dioxepino[4,3-i]isochromen-10-yl)oxy)phenyl) acetic acid]", "values": [
      {"measurement": "EC50", "setting": "HL-60 [6]", "result": 90.9, "unit": "nM"},
      {"measurement": "IC50", "setting": "HL-60 [7]", "result": 20000, "unit": "nM"}
    ]},
    {"smiles": "C[C@H]1[C@@H](Oc2ccc(C(=O)C(=O)O)cc2)O[C@@H]2O[C@@]3(C)CC[C@H]4[C@H](C)CC[C@@H]1[C@@]24OO3", "note": "[Compound 128, 2-oxo-2-(4-(((3R,5aS,6R,8aS, 9R,10S,12R, 12aR)-3,6,9-trimethyldeca-hydro-12H-3,12-epoxy[1,2]dioxepino[4,3-i]isochromen-10-yl)oxy)phenyl) acetic acid]", "values": [
      {"measurement": "EC50", "setting": "HL-60 [6]", "result": 1220, "unit": "nM"},
      {"measurement": "IC50", "setting": "HL-60 [7]", "result": 20000, "unit": "nM"}
    ]},
    {"smiles": "C[C@H]1[C@H](OC(=O)CCC(=O)O)O[C@@H]2O[C@@]3(C)CC[C@H]4[C@H](C)CC[C@@H]1[C@@]24OO3", "note": "[Artesunate, artesunate]", "values": [
      {"measurement": "Maximal MDS-L GlyA fold induction", "setting": "MDS-L cells [1]", "result": 7.51, "unit": "fold"},
      {"measurement": "EC50", "setting": "MDS-L cells [2]", "result": 850, "unit": "nM"}
    ]},
    {"smiles": "C[C@H]1[C@@H](OCc2ccc(C(=O)O)cc2)O[C@@H]2O[C@@]3(C)CC[C@H]4[C@H](C)CC[C@@H]1[C@@]24OO3", "note": "[Artelinic acid (artelinate), artelinate]", "values": [
      {"measurement": "Maximal MDS-L GlyA fold induction", "setting": "MDS-L cells [1]", "result": 7.26, "unit": "fold"},
      {"measurement": "EC50", "setting": "MDS-L cells [2]", "result": 30, "unit": "nM"}
    ]}
  ]
}
